Read-outs that look alike come from different tables or passages of the source.
Key:
[1] = target: T1, TAFIa (activated human TAFI) (Homo sapiens, UniProt Q96IY4); test: Assay for TAFIa inhibition (Ki determination); type: biochemical
T1 sequence (Q96IY4 115-423): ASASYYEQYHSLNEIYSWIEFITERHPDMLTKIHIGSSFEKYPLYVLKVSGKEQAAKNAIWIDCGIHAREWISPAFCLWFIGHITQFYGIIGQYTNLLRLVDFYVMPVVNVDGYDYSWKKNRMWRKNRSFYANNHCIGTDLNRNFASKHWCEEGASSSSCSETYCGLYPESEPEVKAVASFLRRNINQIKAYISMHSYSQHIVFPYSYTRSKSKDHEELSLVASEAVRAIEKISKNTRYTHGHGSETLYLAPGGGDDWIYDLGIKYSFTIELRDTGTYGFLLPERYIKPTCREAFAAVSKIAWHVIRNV
Description: To determine the degree of TAFIa inhibition, compounds were incubated with activated TAFI, and the amount of inhibition expressed in terms of Ki.
Human TAFI (recombinant or purified) was activated by incubating 20 μl of stock solution (360 μg/ml) with 10 μl of human thrombin (10 NIH units/ml), 10 μl of rabbit thrombomodulin (30 μg/ml), 6 μl calcium chloride (50 mM) in 50 μL of 20 mM HEPES (N-[2-hydroxyethyl]piperazine-N-[2-ethanesulfonic acid]) buffer containing 150 mM sodium chloride and 0.01% TWEEN 80 (polyoxyethylene-sorbitan monooleate) pH 7.6 for 20 minutes at 22° C. At the end of the incubation period, thrombin was neutralized by the addition of 10 μL of PPACK (D-Phe-Pro-Arg chloromethyl ketone)(100 nM). TAFIa solution was stored on ice for 5 minutes and finally diluted with 175 μl of HEPES buffer.
A number of different dilutions of the test compound in water were made up. […] To each dilution was then added 20 μl furylacryloyl-alanyl-lysine (FAAL) at a standard concentration. Substrate turn over was measured by reading the absorbance of the reaction mixture at 330 nm every 15 seconds for 30 minutes. Reaction was performed at 24° C. and samples were mixed for 3 seconds prior to each absorbance reading.
A graph of % inhibition against test compound concentration was then plotted; from which was calculated the IC50 value. The Ki value may then be calculated using the Cheng-Prusoff equation.
For the first control, the assay was performed as above, but with 20 μl of water rather than a dilution of the test compound.

[2] = tested on: thrombi in the left circumflex (LCX) coronary artery; test: Lysis of coronary artery thrombi by TAFIa inhibitor in conjunction with t-PA; type: in vivo, dogs; conditions: for injured vessels patent at the end of the experiment: 8 dogs/group, all groups received t-PA
From the text: The study was designed with 4 groups (8 dogs/group): • (i) aspirin pre-treatment/vehicle infusion; • (ii) no pre-treatment/vehicle infusion; • (iii) no pre-treatment/TAFIa inhibitor; and • (iv) aspirin pre-treatment/TAFIa inhibitor.
Thirty minutes after initiating vehicle or compound infusion a continuous electrical current was delivered to the lumen of the left circumflex (LCX) coronary artery to cause endothelial damage and stimulate the production of a thrombus. Thrombi were allowed to mature for 1 hour prior to attempting to lyse the thrombus and cause vessel reperfusion with t-PA. A total of 4 bolus injections of t-PA (each 0.45 mg/kg i.v.) were given sequentially at 15 minute intervals. Blood flow through the coronary artery was then monitored for a further 2 hours so as to assess vessel patency. Time to vessel occlusion, and reperfusion were measured and the quantity and quality of blood flow analysed post-vessel re-perfusion. In addition, the effect of treatment on surgical bleeding, activated clotting time, cutaneous bleeding and platelet aggregation was also assessed.

[3] = TAFIa, FAAL substrate, Ki calculated from IC50 using Cheng-Prusoff equation, read-out: Ki

Compound	Ki [1, 3]	injured vessels patent at the end of the experiment [2]	other results
CCCn1cnc(CC(CCCCN)C(=O)O)c1 (racemic) [Example 3, (±)-6-Amino-2-[(1-n-propyl-1H-imidazol-4-yl)methyl]hexanoic acid]	310 nM	–	–
CCCn1cnc(C[C@H](CCCN)C(=O)O)c1 [Example 7, (+)-(2S)-5-Amino-2-[(1-n-propyl-1H-imidazol-4-yl)methyl]pentanoic acid]	–	8/8	Ki [1]: 13 nM; blood flow post-reperfusion (FIG. 1) ([2]; dogs, t-PA 4 x 0.45 mg/kg i.v. boluses, comparison of treatment groups): far superior to tPA alone; proportion of animals in which flow was >75% of baseline at the end of the protocol ([2]; dogs, with t-PA, versus respective controls): significantly increased; period over which improvement in coronary blood flow was maintained ([2]; dogs, with t-PA, whole of the reperfusion period): 165 min
NCCN[C@@H](Cc1c[nH]cn1)C(=O)O [Example 11, (2S)-2-[(2-Aminoethyl)amino]-3-(1H-imidazol-4-yl)propanoic acid]	344 nM	–	–
NCCN[C@@H](Cc1cn(Cc2cncs2)cn1)C(=O)O [Example 45, (2S)-2-[(2-Aminoethyl)amino]-3-[1-(1,3-thiazol-5-ylmethyl)-1H-imidazol-4-yl]propanoic acid]	197 nM	–	–
CC(=O)Oc1ccccc1C(=O)O [aspirin, reference compound]	–	1/8	–
